From US20230000869A1, “NOVEL ALK2 INHIBITORS AND METHODS FOR INHIBITING BMP SIGNALING” (The Brigham and Women's Hospital, Inc., priority 2017, published 2023)

Columns and labels:
[1] = target: T1, ALK2 (Mus musculus, UniProt P37172); assay: Luciferase reporter gene assay for ALK2 activity (C2C12 BRE-Luc SMAD1/5/8 reporter, BMP6 agonist); assay type: cell-based; conditions: BMP6 50 ng/mL
T1 construct: endogenous in cells; host or cells: C2C12-BRE (BRE-Luc reporter line, G418 selection)
T1 sequence (P37172 21-509): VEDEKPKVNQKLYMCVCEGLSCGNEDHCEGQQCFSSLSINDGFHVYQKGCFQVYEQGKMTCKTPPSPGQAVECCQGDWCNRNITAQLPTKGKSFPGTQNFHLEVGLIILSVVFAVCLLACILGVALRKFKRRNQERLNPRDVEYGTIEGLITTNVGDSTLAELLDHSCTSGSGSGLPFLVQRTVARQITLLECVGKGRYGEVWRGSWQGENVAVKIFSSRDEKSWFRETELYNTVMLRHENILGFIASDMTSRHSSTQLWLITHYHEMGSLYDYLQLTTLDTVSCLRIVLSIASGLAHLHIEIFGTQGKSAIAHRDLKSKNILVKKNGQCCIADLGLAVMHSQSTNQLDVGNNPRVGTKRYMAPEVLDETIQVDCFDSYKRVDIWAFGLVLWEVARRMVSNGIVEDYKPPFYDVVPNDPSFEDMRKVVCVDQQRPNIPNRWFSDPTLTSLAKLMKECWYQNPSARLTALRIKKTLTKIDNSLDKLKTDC
Experimental: (§1) All cell lines were cultured in DMEM, supplemented with […] and 1% Pen/Strep. All media reagents were obtained from Gibco. BMP6, BMP9, and TGFβ were obtained from R&D Systems. C2C12-BRE and HEK293T-SBE were kept in selection with 400 ug/mL G418 from Invivogen.
(§2) In this reporter gene cell based ALK2 and TGFβ assay, the C2C12 cell line was employed for the measurement of ALK2 activity, using a BRE-Luc SMAD1/5/8 reporter and BMP6 as the agonist. The HEK293T cell line was employed to measure TGFβ activity, using a SBE-Luc SMAD2/3 reporter and TGFβ as the agonist. Luciferase reporter assays were read using Promega Steady-Glo Luciferase Assay System.
(§3) Cells were plated in 96 well white clear bottom assay plates at 10 k cells/well for C2C12-BRE, 15 k cells/well for HEK293-SBE in DMEM containing 2% FBS 1% P/S. Cells were given a minimum of 4 hours in incubator at 37° C./5% CO2 to adhere prior to further treatment. Compounds were diluted in DMSO to a 10-point dilution curve and added to the plate to reach the following final concentrations: 10000, 3000, 1000, 300, 100, and 30 nM in the HEK293-SBE assay and 1000, 300, 100, 30, 10, 3, 1, 0.3 nM in the C2C12-BRE assay. Negative and positive control wells received 2 μL DMSO as vehicle treatment. Plates were returned to incubator for 45 minutes and then BMP6 and TGFB were added to a final concentration of 50 ng/mL and 5 ng/mL, respectively. Plates were returned to the incubator and left overnight. After a minimum of 18 hours post BMP6/TGFβ addition, the plates were read using Promega Steady-Glo Luciferase Assay System. A 1:1 mixture of prepared steady-glo and phenol free DMEM was prepared, and 50 μL/well was added to the assay plates whose media had been flicked off. Plates were given 10 minutes post steady-glo addition before luminescence was read on a Spectramax M5e microplate reader. Negative control wells were averaged and subtracted from all other wells on the plate. Inhibition was calculated as the percent of signal loss compared to the averaged positive control wells.

[2] = tested on: TGFβ; assay: Luciferase reporter gene assay for TGFβ activity (HEK293T SBE-Luc SMAD2/3 reporter, TGFβ agonist); assay type: cell-based; conditions: Homo sapiens, HEK-293T, TGFβ 5 ng/mL
Experimental: as §1, §2, §3

Compound | IC50 [1] [nM] | IC50 [2] [nM]
CN1CCN(C2CCN(c3cnc4c(-c5cc(C#N)nc6ccccc56)cnn4c3)CC2)CC1 [Compound 237] | 6 | 240
CN1CCN(C2CCN(c3cnc4c(-c5cc(C(F)F)nc6ccccc56)cnn4c3)CC2)CC1 [Compound 238] | 175 | 306
COc1cc2c(-c3cnn4cc(N5CCC(N6CCN(C)CC6)CC5)cnc34)ccnc2cc1O [Compound 239] | 32 | > 1000
CN1CCN(C2CCN(c3cnc4c(-c5ccnc6cc(F)c(Cl)cc56)cnn4c3)CC2)CC1 [Compound 240] | 16 | 291
CN1CCN(C2CCN(c3cnc4c(-c5ccnc6ccc(Cl)cc56)cnn4c3)CC2)CC1 [Compound 241] | 92 | > 1000
CN1CCN(C2CCN(c3cnc4c(-c5ccnc6cc(F)c(O)cc56)cnn4c3)CC2)CC1 [Compound 242] | 37 | < 10
CN1CCN(C2CCN(c3cnc4c(-c5cccc6[nH]ncc56)cnn4c3)CC2)CC1 [Compound 243] | > 1000 | > 2000
CN1CCN(C2CCN(c3cnc4c(-c5ccnc6cc(Cl)ccc56)cnn4c3)CC2)CC1 [Compound 244] | 30 | 328
Cc1cc(-c2cnn3cc(N4CCC(N5CCN(C)CC5)CC4)cnc23)c2ccc(C(F)(F)F)cc2n1 [Compound 245] | > 1000 | 468
CN1CCN(C2CCN(c3cnc4c(-c5cnn(C)c5)cnn4c3)CC2)CC1 [Compound 246] | > 1000 | > 1000
CN1CCN(C2CCN(c3cnc4c(-c5ccnc6[nH]ccc56)cnn4c3)CC2)CC1 [Compound 247] | 13 | > 3000
CN1CCN(C2CCN(c3cnc4c(-c5ccnc6ccsc56)cnn4c3)CC2)CC1 [Compound 248] | 57 | 2880
CN1CCN(C2CCN(c3cnc4c(-c5ccnc(N)c5)cnn4c3)CC2)CC1 [Compound 249] | > 1000 | > 1000
CN1CCN(C2CCN(c3cnc4c(-c5ccnc6sccc56)cnn4c3)CC2)CC1 [Compound 250] | 17 | 202
CN1CCN(C2CCN(c3cnc4c(-c5ccnc6ccc(F)cc56)cnn4c3)CC2)CC1 [Compound 251] | 26 | 209
CN1CCN(C2CCN(c3cnc4c(-c5ccnc6ccc(OC(F)(F)F)cc56)cnn4c3)CC2)CC1 [Compound 252] | 85 | 12
CN1CCN(C2CCN(c3cnc4c(-c5ccnc6c5ccn6C)cnn4c3)CC2)CC1 [Compound 253] | 193 | > 1000
COc1ccc2c(-c3cnn4cc(N5CCC(N6CCN(C)CC6)CC5)cnc34)ccnc2c1 [Compound 254] | 244 | > 1000
Cc1cc(-c2cnn3cc(N4CCC(N5CCN(C)CC5)CC4)cnc23)c2ccc(F)cc2n1 [Compound 255] | 68 | 28
CN1CCN(C2CCN(c3cnc4c(-c5ccnc6cc(F)ccc56)cnn4c3)CC2)CC1 [Compound 256] | 10 | 104
CN1CCN(C2CCN(c3cnc4c(-c5ccnc6cc(C(F)(F)F)ccc56)cnn4c3)CC2)CC1 [Compound 257] | > 1000 | > 1000
CNC(=O)c1cc(-c2cnn3cc(N4CCC(N5CCN(C)CC5)CC4)cnc23)ccn1 [Compound 258] | 197 | 964
CN1CCN(C2CCN(c3cnc4c(-c5ccnc6c(F)cccc56)cnn4c3)CC2)CC1 [Compound 260] | 12 | 229
CN1CCN(C2CCN(c3cnc4c(-c5ccnc6ncccc56)cnn4c3)CC2)CC1 [Compound 261] | 19 | 916
CN1CCN(C2CCN(c3cnc4c(-c5ccnc6cc(OC(F)(F)F)ccc56)cnn4c3)CC2)CC1 [Compound 262] | > 1000 | > 3000
CN1CCN(C2CCN(c3cnc4c(-c5ccnc6cc(C#N)ccc56)cnn4c3)CC2)CC1 [Compound 263] | 295 | 424

Compound | IC50 [1] [nM] | IC50 [2] [nM]
CN1CCN(C2CCN(c3cnc4c(-c5ccnc6cc(F)c(N)cc56)cnn4c3)CC2)CC1 [Compound 264] | 18 | 383
Cc1cc2c(-c3cnn4cc(N5CCC(N6CCN(C)CC6)CC5)cnc34)ccnc2cc1F [Compound 266] | 17 | 138
CN1CCN(C2CCN(c3cnc4c(-c5ccnc6ccc(Cl)c(F)c56)cnn4c3)CC2)CC1 [Compound 267] | 162 | > 2000
Cc1cc(-c2cnn3cc(N4CCC(N5CCN(C)CC5)CC4)cnc23)c2cccc(C(F)(F)F)c2n1 [Compound 268] | 98 | > 1000
CN1CCN(C2CCN(c3cnc4c(-c5ccnc6cn[nH]c56)cnn4c3)CC2)CC1 [Compound 269] | 311 | > 3000
Cc1cccc2c(-c3cnn4cc(N5CCC(N6CCN(C)CC6)CC5)cnc34)ccnc12 [Compound 270] | 558 | > 3000
COc1ccc2ncc(F)c(-c3cnn4cc(N5CCC(N6CCN(C)CC6)CC5)cnc34)c2c1 [Compound 271] | > 3000 | > 3000
COc1cc(-c2cnn3cc(N4CCC(N5CCN(C)CC5)CC4)cnc23)ccn1 [Compound 272] | 153 | > 1000
COc1cc(F)c2nccc(-c3cnn4cc(N5CCC(N6CCN(C)CC6)CC5)cnc34)c2c1 [Compound 273] | 14 | 267
COc1cc(-c2cnn3cc(N4CCC(N5CCN(C)CC5)CC4)cnc23)cc(OC)c1OC [Compound 274] | 32 | 321
Cc1cc(-c2cnn3cc(N4CCC(N5CCN(C)CC5)CC4)cnc23)c2cc(F)ccc2n1 [Compound 275] | 133 | 72
Cc1cc(-c2cnn3cc(N4CCC(N5CCN(C)CC5)CC4)cnc23)c2cc(F)cc(F)c2n1 [Compound 276] | 164 | 64
CN1CCN(C2CCN(c3cnc4c(-c5ccncc5)cnn4c3)CC2)CC1 [Compound 277] | > 1000 | > 3000
Cc1ccc2nccc(-c3cnn4cc(N5CCC(N6CCN(C)CC6)CC5)cnc34)c2c1F [Compound 278] | 31 | 897
CNc1ccc2nccc(-c3cnn4cc(N5CCC(N6CCN(C)CC6)CC5)cnc34)c2c1 [Compound 279] | 55 | > 1000
CN1CCN(C2CCN(c3cnc4c(-c5ccnc6ccc(N(C)C)cc56)cnn4c3)CC2)CC1 [Compound 280] | 26 | > 2000
CC(=O)Nc1ccc2nccc(-c3cnn4cc(N5CCC(N6CCN(C)CC6)CC5)cnc34)c2c1 [Compound 281] | > 3000 | > 3000
COc1cc2c(-c3cnn4cc(N5CC6(CN(C)C6)C5)cnc34)ccnc2cc1F [Compound 282] | 10 | 96
COc1cc2c(-c3cnn4cc(N5CCC6(CC5)CN(C)C6)cnc34)ccnc2cc1F [Compound 290] | 12 | 63
CN1CCN(C2CN(c3cnc4c(-c5cccc6c(C(N)=O)cccc56)cnn4c3)C2)CC1 [Compound 307] | > 1000 | > 3000
Cc1cc2c(-c3cnn4cc(N5CC(N6CCN(C)CC6)C5)cnc34)ccnc2cc1F [Compound 308] | 159 | 595
COc1cc(-c2cnn3cc(N4CC(N5CCN(C)CC5)C4)cnc23)cc(OC)c1OC [Compound 309] | 28 | 335
Cc1cc(-c2cnn3cc(N4CC(N5CCN(C)CC5)C4)cnc23)c2ccc(F)cc2n1 [Compound 310] | 21 | 38
Cc1cc(-c2cnn3cc(N4CC(N5CCN(C)CC5)C4)cnc23)c2cc(F)cc(F)c2n1 [Compound 311] | 33 | 60
CN1CCN(C2CN(c3cnc4c(-c5ccncc5)cnn4c3)C2)CC1 [Compound 313] | 2 | > 3000
